{
  "source": "ChEMBL document CHEMBL1131280",
  "about": "“(2S,4S)-amino-4-(2,2-diphenylethyl)pentanedioic acid selective group 2 metabotropic glutamate receptor antagonist” (Bioorg Med Chem Lett, 1998)",
  "key": {"[1]": {"test": "Inhibitory activity towards group 2 metabotropic glutamate receptor by displacement of ACPD-sensitive [3H]- glutamate in rat forebrain membrane", "type": "cell membranes"}, "[2]": {"target": "Glutamate receptor ionotropic, AMPA (Rattus norvegicus, UniProt P19490+P19491+P19492+P19493)", "test": "Binding affinity against Ionotropic glutamate receptor using [3H]-AMPA displacement from rat forebrain preparations"}, "[3]": {"target": "Glutamate receptor ionotropic, kainate 3 (Rattus norvegicus, UniProt P42264)", "sequence (P42264 whole entry)": "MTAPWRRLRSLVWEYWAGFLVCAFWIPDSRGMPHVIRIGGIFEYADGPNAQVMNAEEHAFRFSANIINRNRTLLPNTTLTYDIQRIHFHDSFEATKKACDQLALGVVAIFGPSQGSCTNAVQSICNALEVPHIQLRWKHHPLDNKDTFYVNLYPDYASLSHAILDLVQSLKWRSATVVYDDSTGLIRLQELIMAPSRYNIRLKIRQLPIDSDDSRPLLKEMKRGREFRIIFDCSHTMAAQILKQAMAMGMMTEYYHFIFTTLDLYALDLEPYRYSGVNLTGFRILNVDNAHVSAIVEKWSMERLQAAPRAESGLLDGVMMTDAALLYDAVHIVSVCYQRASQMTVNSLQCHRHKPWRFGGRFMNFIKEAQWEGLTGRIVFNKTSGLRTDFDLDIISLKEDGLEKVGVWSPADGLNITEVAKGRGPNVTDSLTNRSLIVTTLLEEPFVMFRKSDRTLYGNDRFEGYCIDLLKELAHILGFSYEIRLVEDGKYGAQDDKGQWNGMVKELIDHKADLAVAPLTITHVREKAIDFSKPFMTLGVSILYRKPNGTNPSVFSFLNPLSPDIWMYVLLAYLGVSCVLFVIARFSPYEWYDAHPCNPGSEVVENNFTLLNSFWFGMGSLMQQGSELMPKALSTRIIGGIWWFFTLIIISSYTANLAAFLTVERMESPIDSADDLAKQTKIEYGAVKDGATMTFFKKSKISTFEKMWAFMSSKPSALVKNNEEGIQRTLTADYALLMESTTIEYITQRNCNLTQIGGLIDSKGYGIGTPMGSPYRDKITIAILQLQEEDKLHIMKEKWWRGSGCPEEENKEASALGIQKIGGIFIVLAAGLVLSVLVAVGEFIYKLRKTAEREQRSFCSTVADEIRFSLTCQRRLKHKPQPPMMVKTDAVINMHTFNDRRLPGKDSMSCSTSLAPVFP", "test": "Binding affinity against Ionotropic glutamate receptor using ACPD sensitive [3H]- glutamate displacement from rat forebrain preparations"}, "[4]": {"target": "Glutamate receptor ionotropic, kainate", "test": "Binding affinity against Ionotropic glutamate receptor using [3H]-Kainate displacement from rat forebrain preparations"}, "[5]": {"target": "Metabotropic glutamate receptor 8 (Homo sapiens, UniProt O00222)", "test": "Tested for […] in non-neuronal cells (RGT) expressing human Metabotropic glutamate receptor 8 by measuring L-AP4 (0.3 uM of forskolin) (15 uM)-stimulated cAMP formation", "type": "functional, cell-based"}, "[6]": {"target": "Metabotropic glutamate receptor 5 (Homo sapiens, UniProt P41594)", "sequence (P41594 whole entry)": "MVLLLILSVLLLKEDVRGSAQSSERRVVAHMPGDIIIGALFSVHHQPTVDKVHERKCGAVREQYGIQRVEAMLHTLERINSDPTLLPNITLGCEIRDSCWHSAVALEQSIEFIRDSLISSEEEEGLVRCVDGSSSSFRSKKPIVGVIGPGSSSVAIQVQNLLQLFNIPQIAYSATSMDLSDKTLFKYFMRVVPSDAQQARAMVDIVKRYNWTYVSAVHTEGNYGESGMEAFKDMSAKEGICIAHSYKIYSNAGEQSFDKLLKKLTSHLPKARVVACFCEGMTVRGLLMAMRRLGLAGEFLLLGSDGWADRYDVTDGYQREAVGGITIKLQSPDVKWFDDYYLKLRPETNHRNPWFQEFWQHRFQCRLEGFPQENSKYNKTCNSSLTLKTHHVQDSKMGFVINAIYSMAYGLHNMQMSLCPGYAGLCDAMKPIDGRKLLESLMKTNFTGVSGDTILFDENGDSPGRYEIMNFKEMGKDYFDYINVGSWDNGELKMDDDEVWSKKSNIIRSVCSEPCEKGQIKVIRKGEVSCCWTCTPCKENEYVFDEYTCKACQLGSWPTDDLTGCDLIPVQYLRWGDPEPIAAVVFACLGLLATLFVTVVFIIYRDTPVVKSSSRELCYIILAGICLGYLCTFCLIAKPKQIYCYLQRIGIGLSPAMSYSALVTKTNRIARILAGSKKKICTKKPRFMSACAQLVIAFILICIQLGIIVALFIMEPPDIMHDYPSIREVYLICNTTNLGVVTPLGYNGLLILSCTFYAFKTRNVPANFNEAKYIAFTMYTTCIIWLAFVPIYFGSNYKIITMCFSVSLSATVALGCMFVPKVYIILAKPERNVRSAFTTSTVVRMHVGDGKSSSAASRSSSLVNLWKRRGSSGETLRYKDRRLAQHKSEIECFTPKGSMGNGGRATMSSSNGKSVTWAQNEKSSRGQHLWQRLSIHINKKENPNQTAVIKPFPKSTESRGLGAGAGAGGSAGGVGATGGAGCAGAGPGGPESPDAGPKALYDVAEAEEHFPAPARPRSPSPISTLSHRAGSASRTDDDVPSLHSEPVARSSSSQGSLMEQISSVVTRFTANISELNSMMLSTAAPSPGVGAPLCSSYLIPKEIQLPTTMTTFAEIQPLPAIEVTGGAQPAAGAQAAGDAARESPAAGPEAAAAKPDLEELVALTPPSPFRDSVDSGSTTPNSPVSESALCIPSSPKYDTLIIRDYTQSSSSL", "test": "Tested for […] in non-neuronal cells (RGT) expressing human Metabotropic glutamate receptor 5 by measuring ACPD (100 uM)-stimulated phosphoinositide hydrolysis", "type": "functional, cell-based"}, "[7]": {"target": "Metabotropic glutamate receptor 3 (Homo sapiens, UniProt Q14832)", "sequence (Q14832 whole entry)": "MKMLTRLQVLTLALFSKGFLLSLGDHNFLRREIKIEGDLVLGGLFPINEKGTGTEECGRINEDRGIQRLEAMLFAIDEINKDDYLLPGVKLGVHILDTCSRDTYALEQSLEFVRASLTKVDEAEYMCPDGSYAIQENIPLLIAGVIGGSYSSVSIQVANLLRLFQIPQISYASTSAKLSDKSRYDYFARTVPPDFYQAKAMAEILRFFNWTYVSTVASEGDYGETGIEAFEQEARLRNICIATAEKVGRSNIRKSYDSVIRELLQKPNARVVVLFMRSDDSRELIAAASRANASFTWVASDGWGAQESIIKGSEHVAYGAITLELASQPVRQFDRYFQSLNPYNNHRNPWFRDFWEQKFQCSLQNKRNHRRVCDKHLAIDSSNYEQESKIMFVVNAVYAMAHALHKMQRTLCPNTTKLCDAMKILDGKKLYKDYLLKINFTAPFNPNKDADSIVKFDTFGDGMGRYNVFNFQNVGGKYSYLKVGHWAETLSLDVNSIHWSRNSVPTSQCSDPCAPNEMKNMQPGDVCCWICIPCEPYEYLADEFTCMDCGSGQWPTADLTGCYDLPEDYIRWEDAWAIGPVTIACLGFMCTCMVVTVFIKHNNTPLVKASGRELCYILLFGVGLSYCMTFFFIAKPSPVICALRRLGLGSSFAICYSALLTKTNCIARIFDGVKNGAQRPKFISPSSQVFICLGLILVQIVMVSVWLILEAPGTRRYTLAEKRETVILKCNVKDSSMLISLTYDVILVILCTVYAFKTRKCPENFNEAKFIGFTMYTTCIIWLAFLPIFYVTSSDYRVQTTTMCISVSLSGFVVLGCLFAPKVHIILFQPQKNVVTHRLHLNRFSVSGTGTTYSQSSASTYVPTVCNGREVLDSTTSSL", "test": "Tested for […] in non-neuronal cells (RGT) expressing human Metabotropic glutamate receptor 3 by measuring ACPD (3 uM) induced inhibition of forskolin (15 uM)-stimulated cAMP formation", "type": "functional, cell-based"}, "[8]": {"target": "Metabotropic glutamate receptor 7 (Homo sapiens, UniProt Q14831)", "test": "Tested for […] in non-neuronal cells (RGT) expressing human mGlu7a receptor by measuring L-AP4 (1000 uM of forskolin (15 uM)-stimulated cAMP formation", "type": "functional, cell-based"}, "[9]": {"target": "Metabotropic glutamate receptor 1 (Homo sapiens, UniProt Q13255)", "sequence (Q13255 whole entry)": "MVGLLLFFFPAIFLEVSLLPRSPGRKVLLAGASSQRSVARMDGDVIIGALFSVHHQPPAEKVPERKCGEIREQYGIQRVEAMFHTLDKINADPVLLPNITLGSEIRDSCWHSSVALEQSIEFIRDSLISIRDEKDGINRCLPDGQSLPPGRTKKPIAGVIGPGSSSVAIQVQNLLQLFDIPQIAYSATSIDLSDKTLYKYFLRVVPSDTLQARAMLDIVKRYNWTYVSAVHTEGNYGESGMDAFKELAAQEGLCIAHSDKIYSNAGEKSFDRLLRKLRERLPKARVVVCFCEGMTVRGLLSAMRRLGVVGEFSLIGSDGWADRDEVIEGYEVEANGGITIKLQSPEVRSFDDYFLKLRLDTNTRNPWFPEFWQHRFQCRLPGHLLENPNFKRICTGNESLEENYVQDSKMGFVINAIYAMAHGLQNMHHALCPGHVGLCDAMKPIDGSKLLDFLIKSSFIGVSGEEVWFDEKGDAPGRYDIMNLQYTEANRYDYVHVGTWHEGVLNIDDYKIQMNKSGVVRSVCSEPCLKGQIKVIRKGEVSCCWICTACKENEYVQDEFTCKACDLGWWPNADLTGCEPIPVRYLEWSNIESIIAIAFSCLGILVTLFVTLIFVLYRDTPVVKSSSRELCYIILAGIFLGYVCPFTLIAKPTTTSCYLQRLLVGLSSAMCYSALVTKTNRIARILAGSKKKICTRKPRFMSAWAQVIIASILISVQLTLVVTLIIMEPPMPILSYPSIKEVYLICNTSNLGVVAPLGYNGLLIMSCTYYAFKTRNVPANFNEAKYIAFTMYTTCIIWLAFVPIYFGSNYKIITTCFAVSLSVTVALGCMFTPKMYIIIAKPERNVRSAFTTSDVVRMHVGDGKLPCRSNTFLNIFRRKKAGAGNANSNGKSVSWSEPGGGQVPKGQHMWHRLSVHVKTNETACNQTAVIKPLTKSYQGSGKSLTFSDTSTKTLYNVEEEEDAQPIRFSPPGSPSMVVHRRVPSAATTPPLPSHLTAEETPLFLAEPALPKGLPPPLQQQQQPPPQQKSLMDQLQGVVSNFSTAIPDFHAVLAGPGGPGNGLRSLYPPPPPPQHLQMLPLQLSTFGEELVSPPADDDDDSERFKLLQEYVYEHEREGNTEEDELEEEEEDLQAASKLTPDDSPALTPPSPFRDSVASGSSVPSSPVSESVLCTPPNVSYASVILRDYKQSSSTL", "test": "Tested for […] in non-neuronal cells (RGT) expressing human Metabotropic glutamate receptor 1 by measuring ACPD (100 uM)-stimulated phosphoinositide hydrolysis", "type": "functional, cell-based"}, "[10]": {"target": "Metabotropic glutamate receptor 4 (Homo sapiens, UniProt Q14833)", "sequence (Q14833 whole entry)": "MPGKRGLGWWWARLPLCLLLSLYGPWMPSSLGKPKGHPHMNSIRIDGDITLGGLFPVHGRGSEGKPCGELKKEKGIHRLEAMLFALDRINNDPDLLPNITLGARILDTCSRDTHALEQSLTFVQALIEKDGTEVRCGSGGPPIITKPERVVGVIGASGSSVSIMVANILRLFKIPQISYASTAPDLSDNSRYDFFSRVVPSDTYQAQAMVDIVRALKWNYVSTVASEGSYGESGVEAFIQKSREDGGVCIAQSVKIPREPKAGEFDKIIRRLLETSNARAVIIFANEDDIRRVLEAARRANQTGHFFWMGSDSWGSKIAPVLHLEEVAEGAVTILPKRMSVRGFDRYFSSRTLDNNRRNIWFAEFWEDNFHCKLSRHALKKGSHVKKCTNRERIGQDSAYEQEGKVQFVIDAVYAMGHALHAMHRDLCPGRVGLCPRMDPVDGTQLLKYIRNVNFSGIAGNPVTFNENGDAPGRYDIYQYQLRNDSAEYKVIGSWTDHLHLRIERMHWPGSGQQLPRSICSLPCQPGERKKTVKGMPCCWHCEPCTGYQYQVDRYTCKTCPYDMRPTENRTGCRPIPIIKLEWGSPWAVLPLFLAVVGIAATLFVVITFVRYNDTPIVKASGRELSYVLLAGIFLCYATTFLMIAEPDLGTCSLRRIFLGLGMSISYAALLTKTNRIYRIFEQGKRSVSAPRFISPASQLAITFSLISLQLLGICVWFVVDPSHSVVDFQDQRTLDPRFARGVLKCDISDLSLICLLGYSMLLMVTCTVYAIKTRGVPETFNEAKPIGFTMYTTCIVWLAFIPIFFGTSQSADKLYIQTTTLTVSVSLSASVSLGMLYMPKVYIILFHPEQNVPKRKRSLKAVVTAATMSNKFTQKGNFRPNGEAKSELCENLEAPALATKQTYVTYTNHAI", "test": "Tested for […] in non-neuronal cells (RGT) expressing human Metabotropic glutamate receptor 4 by measuring L-AP4 (3 uM) induced inhibition of forskolin (15 uM)-stimulated cAMP formation", "type": "functional, cell-based"}, "[11]": {"target": "Metabotropic glutamate receptor 2 (Homo sapiens, UniProt Q14416)", "test": "Tested for […] in non-neuronal cells (RGT) expressing human Metabotropic glutamate receptor 2 by measuring ACPD (3 uM) induced inhibition of forskolin (15 uM)-stimulated cAMP formation", "type": "functional, cell-based"}},
  "data": [
    {"smiles": "COc1cccc(C[C@@H](C[C@H](N)C(=O)O)C(=O)O)c1", "values": [
      {"measurement": "IC50", "setting": "[1]", "value": 9.28, "unit": "µM"}
    ]},
    {"smiles": "N[C@@H](C[C@H](CCCCCc1ccccc1)C(=O)O)C(=O)O", "values": [
      {"measurement": "IC50", "setting": "[1]", "value": 2.49, "unit": "µM"}
    ]},
    {"smiles": "N[C@@H](C[C@@H](CCCCc1ccccc1)C(=O)O)C(=O)O", "values": [
      {"measurement": "IC50", "setting": "[1]", "value": "> 100", "unit": "µM"}
    ]},
    {"smiles": "N[C@@H](C[C@H](Cc1ccc2ccccc2c1)C(=O)O)C(=O)O", "values": [
      {"measurement": "IC50", "setting": "[1]", "value": 3.33, "unit": "µM"}
    ]},
    {"smiles": "N[C@@H](C[C@H](CCCCC(c1ccccc1)c1ccccc1)C(=O)O)C(=O)O", "values": [
      {"measurement": "IC50", "setting": "[1]", "value": 3.4, "unit": "µM"}
    ]},
    {"smiles": "N[C@@H](C[C@@H](CCCc1ccccc1)C(=O)O)C(=O)O", "values": [
      {"measurement": "IC50", "setting": "[1]", "value": 21.1, "unit": "µM"}
    ]},
    {"smiles": "Cc1ccc(C[C@@H](C[C@H](N)C(=O)O)C(=O)O)cc1", "values": [
      {"measurement": "IC50", "setting": "[1]", "value": 4.6, "unit": "µM"}
    ]},
    {"smiles": "N[C@@H](C[C@H](CCC(c1ccccc1)c1ccccc1)C(=O)O)C(=O)O", "values": [
      {"measurement": "IC50", "setting": "[2]", "value": 14.5, "unit": "µM"},
      {"measurement": "IC50", "setting": "[3]", "value": 1.16, "unit": "µM"},
      {"measurement": "IC50", "setting": "[4]", "value": 39.3, "unit": "µM"}
    ]},
    {"smiles": "N[C@@H](C[C@H](CCCc1ccccc1)C(=O)O)C(=O)O", "values": [
      {"measurement": "IC50", "setting": "[2]", "value": 34, "unit": "µM"},
      {"measurement": "IC50", "setting": "[1]", "value": 1.84, "unit": "µM"},
      {"measurement": "IC50", "setting": "[3]", "value": 1.84, "unit": "µM"},
      {"measurement": "IC50", "setting": "[4]", "value": 9.2, "unit": "µM"}
    ]},
    {"smiles": "N[C@@H](C[C@H](Cc1ccc(C(F)(F)F)cc1)C(=O)O)C(=O)O", "values": [
      {"measurement": "IC50", "setting": "[1]", "value": 3.16, "unit": "µM"}
    ]},
    {"smiles": "N[C@@H](C[C@H](CC1CCC(c2ccccc2)(c2ccccc2)CC1)C(=O)O)C(=O)O", "values": [
      {"measurement": "IC50", "setting": "[1]", "value": 1.4, "unit": "µM"}
    ]},
    {"smiles": "N[C@@H](C[C@H](CC1CCC(c2ccccc2)CC1)C(=O)O)C(=O)O", "note": "(some centres not stated)", "values": [
      {"measurement": "IC50", "setting": "[1]", "value": 3.2, "unit": "µM"}
    ]},
    {"smiles": "N[C@@H](C[C@H](CCCCc1ccccc1)C(=O)O)C(=O)O", "values": [
      {"measurement": "IC50", "setting": "[1]", "value": 4.69, "unit": "µM"}
    ]},
    {"smiles": "N[C@@H](C[C@H](CCCC(c1ccccc1)c1ccccc1)C(=O)O)C(=O)O", "values": [
      {"measurement": "IC50", "setting": "[2]", "value": "> 100", "unit": "µM"},
      {"measurement": "IC50", "setting": "[5]", "value": "> 300", "unit": "µM"},
      {"measurement": "IC50", "setting": "[6]", "value": "> 300", "unit": "µM"},
      {"measurement": "IC50", "setting": "[7]", "value": 30, "unit": "µM"},
      {"measurement": "IC50", "setting": "[8]", "value": "> 300", "unit": "µM"},
      {"measurement": "IC50", "setting": "[9]", "value": "> 300", "unit": "µM"},
      {"measurement": "IC50", "setting": "[10]", "value": "> 300", "unit": "µM"},
      {"measurement": "IC50", "setting": "[11]", "value": 50, "unit": "µM"}
    ]},
    {"smiles": "N[C@@H](C[C@H](CC(c1ccccc1)c1ccccc1)C(=O)O)C(=O)O", "values": [
      {"measurement": "IC50", "setting": "[2]", "value": "> 100", "unit": "µM"},
      {"measurement": "IC50", "setting": "[5]", "value": "> 300", "unit": "µM"},
      {"measurement": "IC50", "setting": "[6]", "value": "> 300", "unit": "µM"},
      {"measurement": "IC50", "setting": "[7]", "value": 6.1, "unit": "µM"},
      {"measurement": "IC50", "setting": "[8]", "value": "> 300", "unit": "µM"},
      {"measurement": "IC50", "setting": "[9]", "value": "> 300", "unit": "µM"},
      {"measurement": "IC50", "setting": "[10]", "value": "> 300", "unit": "µM"},
      {"measurement": "IC50", "setting": "[3]", "value": 0.38, "unit": "µM"},
      {"measurement": "IC50", "setting": "[4]", "value": "> 100", "unit": "µM"},
      {"measurement": "IC50", "setting": "[11]", "value": 18, "unit": "µM"}
    ]},
    {"smiles": "N[C@@H](C[C@H](Cc1ccccc1)C(=O)O)C(=O)O", "values": [
      {"measurement": "IC50", "setting": "[1]", "value": 8.99, "unit": "µM"}
    ]},
    {"smiles": "N[C@@H](C[C@H](CCc1ccccc1)C(=O)O)C(=O)O", "values": [
      {"measurement": "IC50", "setting": "[1]", "value": 4.65, "unit": "µM"}
    ]},
    {"smiles": "N[C@@H](C[C@@H](Cc1ccc(C(F)(F)F)cc1)C(=O)O)C(=O)O", "note": "(single isomer, unassigned)", "values": [
      {"measurement": "IC50", "setting": "[1]", "value": "> 100", "unit": "µM"}
    ]},
    {"smiles": "N[C@@H](C[C@@H](Cc1ccc2ccccc2c1)C(=O)O)C(=O)O", "note": "(single isomer, unassigned)", "values": [
      {"measurement": "IC50", "setting": "[1]", "value": 8.82, "unit": "µM"}
    ]},
    {"smiles": "Cc1ccc(C[C@H](C[C@H](N)C(=O)O)C(=O)O)cc1", "note": "(single isomer, unassigned)", "values": [
      {"measurement": "IC50", "setting": "[1]", "value": 7.85, "unit": "µM"}
    ]},
    {"smiles": "N[C@@H](C[C@@H](CCc1ccccc1)C(=O)O)C(=O)O", "note": "(single isomer, unassigned)", "values": [
      {"measurement": "IC50", "setting": "[1]", "value": 14.5, "unit": "µM"}
    ]}
  ]
}
